{"source": "patent EP0700399B1", "about": "“36-DERIVATIVES OF RIFAMYCINS AND THEIR USE AS ANTIMICROBIAL AGENTS” (GRUPPO LEPETIT S.P.A., priority 1993, dated 1994)", "test_in_all_cases": "MIC by broth microdilution", "key": {"[1]": {"test_system": "Streptococcus pyogenes", "type": "cell-based", "conditions": "Streptococcus pyogenes; internal code L49; read-out: MIC of the compounds"}, "[2]": {"test_system": "Propionibact. acnes ATCC 6919", "type": "cell-based, Propionibacterium acnes", "conditions": "Cutibacterium acnes, ATCC6919; internal code L1014; anaerobic, 48 hours; read-out: MIC of the compounds"}, "[3]": {"test_system": "Enterococc. faecalis ATCC 7080", "type": "cell-based, Enterococcus faecalis", "conditions": "Enterococcus faecalis, ATCC7080; internal code L149; read-out: MIC of the compounds"}, "[4]": {"test_system": "Bacteroides fragilis ATCC 23745", "type": "cell-based", "conditions": "Bacteroides fragilis, ATCC23745; internal code L1010; anaerobic, 48 hours; read-out: MIC of the compounds"}, "[5]": {"test_system": "Staph. aureus rifa-r^(2)", "type": "cell-based", "conditions": "Staphylococcus aureus, read-out: MIC of the compounds"}, "[6]": {"test_system": "Esch. coli K12 wild type", "type": "cell-based", "conditions": "Escherichia coli, K12WILDTYPE, internal code G210, read-out: MIC of the compounds"}, "[7]": {"test_system": "Proteus vulgaris ATCC 881", "type": "cell-based", "conditions": "Proteus vulgaris, ATCC881; internal code L79; read-out: MIC of the compounds"}, "[8]": {"test_system": "Pseudomonas aerug. ATCC10145", "type": "cell-based, Pseudomonas aeruginosa", "conditions": "Pseudomonas, ATCC10145; internal code L4; read-out: MIC of the compounds"}, "[9]": {"test_system": "Esch. coli K12 hyperpermeable", "type": "cell-based, Escherichia coli", "conditions": "Escherichia coli, read-out: MIC of the compounds"}, "[10]": {"test_system": "Esch. coli K12 rifa-r^(1)", "type": "cell-based, Escherichia coli", "conditions": "Escherichia coli, read-out: MIC of the compounds"}, "[11]": {"test_system": "Haemoph. influenzae ATCC 19418", "type": "cell-based, Haemophilus influenzae", "conditions": "Haemophilus influenzae, ATCC19418; internal code L970; 5% carbon dioxide, 48 hours; read-out: MIC of the compounds"}, "[12]": {"test_system": "Staph. epidermidis ATCC 12228", "type": "cell-based", "conditions": "Staphylococcus epidermidis, ATCC12228; internal code L147; read-out: MIC of the compounds"}, "[13]": {"test_system": "Neisseria gonorrhoeae", "type": "cell-based", "conditions": "Neisseria gonorrhoeae; internal code L997; 5% carbon dioxide, 48 hours; read-out: MIC of the compounds"}, "[14]": {"test_system": "Staph. haemolyticus rifa-r^(2)", "type": "cell-based", "conditions": "Staphylococcus haemolyticus, read-out: MIC of the compounds"}, "[15]": {"test_system": "Escherichia coli", "type": "cell-based", "conditions": "Escherichia coli; internal code L47; read-out: MIC of the compounds"}, "[16]": {"test_system": "Strept. pneumoniae", "type": "cell-based", "conditions": "Streptococcus pneumoniae; internal code L44; read-out: MIC of the compounds"}, "[17]": {"test_system": "Staphylococcus aureus", "type": "cell-based", "conditions": "Staphylococcus aureus; internal code L165; read-out: MIC of the compounds"}}, "note": "Where two headings read alike, the source gives them in different places."}
{"smiles": "CO[C@H]1/C=C/O[C@@]2(C)Oc3c(C)c(O)c4c(c3C2=O)C(=O)C=C(NC(=O)/C(C)=C\\C=C\\[C@H](C)[C@H](O)[C@@H](C)[C@@H](O)[C@@H](C)[C@H](OC(=O)CF)[C@@H]1C)C4=O", "note": "[Compound C2, 36-Fluororifamycin S]", "values": [{"measurement": "MIC", "setting": "[1]", "value": 0.008, "unit": "µg/mL"}, {"measurement": "MIC", "setting": "[2]", "value": 0.13, "unit": "µg/mL"}, {"measurement": "MIC", "setting": "[3]", "value": 1, "unit": "µg/mL"}, {"measurement": "MIC", "setting": "[4]", "value": 2, "unit": "µg/mL"}, {"measurement": "MIC", "setting": "[5]; internal code L1282, rifampicin resistant strain, highly resistant", "value": 64, "unit": "µg/mL"}, {"measurement": "MIC", "setting": "[6]", "value": "≥ 128", "unit": "µg/mL"}, {"measurement": "MIC", "setting": "[7]", "value": 32, "unit": "µg/mL"}, {"measurement": "MIC", "setting": "[8]", "value": 64, "unit": "µg/mL"}, {"measurement": "MIC", "setting": "[9]; internal code G1640, hyperpermeable", "value": 1, "unit": "µg/mL"}, {"measurement": "MIC", "setting": "[10]; internal code G1064, rifampicin resistant strain, moderately resistant", "value": "> 128", "unit": "µg/mL"}, {"measurement": "MIC", "setting": "[11]", "value": 2, "unit": "µg/mL"}, {"measurement": "MIC", "setting": "[12]", "value": 0.015, "unit": "µg/mL"}, {"measurement": "MIC", "setting": "[13]", "value": 2, "unit": "µg/mL"}, {"measurement": "MIC", "setting": "[14]; internal code L602, rifampicin resistant strain, highly resistant", "value": "≥ 128", "unit": "µg/mL"}, {"measurement": "MIC", "setting": "[15]", "value": 128, "unit": "µg/mL"}, {"measurement": "MIC", "setting": "[16]", "value": 0.015, "unit": "µg/mL"}, {"measurement": "MIC", "setting": "[17]", "value": 0.015, "unit": "µg/mL"}]}
{"smiles": "CO[C@H]1/C=C/O[C@@]2(C)Oc3c(C)c(O)c4c(c3C2=O)C(=O)C=C(NC(=O)/C(C)=C\\C=C\\[C@H](C)[C@H](O)[C@@H](C)[C@@H](O)[C@@H](C)[C@H](OC(=O)CI)[C@@H]1C)C4=O", "note": "[Compound C10, 36-Iodorifamycin S]", "values": [{"measurement": "MIC", "setting": "[1]", "value": 0.015, "unit": "µg/mL"}, {"measurement": "MIC", "setting": "[2]", "value": 0.13, "unit": "µg/mL"}, {"measurement": "MIC", "setting": "[3]", "value": 2, "unit": "µg/mL"}, {"measurement": "MIC", "setting": "[4]", "value": 0.5, "unit": "µg/mL"}, {"measurement": "MIC", "setting": "[5]", "value": 32, "unit": "µg/mL"}, {"measurement": "MIC", "setting": "[6]", "value": 128, "unit": "µg/mL"}, {"measurement": "MIC", "setting": "[7]", "value": 32, "unit": "µg/mL"}, {"measurement": "MIC", "setting": "[8]", "value": 32, "unit": "µg/mL"}, {"measurement": "MIC", "setting": "[9]", "value": 1, "unit": "µg/mL"}, {"measurement": "MIC", "setting": "[10]", "value": "≥ 128", "unit": "µg/mL"}, {"measurement": "MIC", "setting": "[11]", "value": 4, "unit": "µg/mL"}, {"measurement": "MIC", "setting": "[12]", "value": 0.06, "unit": "µg/mL"}, {"measurement": "MIC", "setting": "[13]", "value": 16, "unit": "µg/mL"}, {"measurement": "MIC", "setting": "[14]", "value": 64, "unit": "µg/mL"}, {"measurement": "MIC", "setting": "[15]", "value": 64, "unit": "µg/mL"}, {"measurement": "MIC", "setting": "[16]", "value": 0.03, "unit": "µg/mL"}, {"measurement": "MIC", "setting": "[17]", "value": 0.06, "unit": "µg/mL"}]}
{"smiles": "CCN(CC)CC(=O)O[C@H]1[C@H](C)[C@H](O)[C@H](C)[C@@H](O)[C@@H](C)/C=C/C=C(/C)C(=O)NC2=CC(=O)c3c(c(O)c(C)c4c3C(=O)[C@@](C)(O/C=C/[C@H](OC)[C@H]1C)O4)C2=O", "note": "[Compound C12, 36-Diethylaminorifamycin S]", "values": [{"measurement": "MIC", "setting": "[1]", "value": 0.06, "unit": "µg/mL"}, {"measurement": "MIC", "setting": "[2]", "value": 0.5, "unit": "µg/mL"}, {"measurement": "MIC", "setting": "[3]", "value": 0.25, "unit": "µg/mL"}, {"measurement": "MIC", "setting": "[4]", "value": 2, "unit": "µg/mL"}, {"measurement": "MIC", "setting": "[5]", "value": 32, "unit": "µg/mL"}, {"measurement": "MIC", "setting": "[6]", "value": 64, "unit": "µg/mL"}, {"measurement": "MIC", "setting": "[7]", "value": 8, "unit": "µg/mL"}, {"measurement": "MIC", "setting": "[8]", "value": 32, "unit": "µg/mL"}, {"measurement": "MIC", "setting": "[9]", "value": "≤ 0.13", "unit": "µg/mL"}, {"measurement": "MIC", "setting": "[10]", "value": "> 128", "unit": "µg/mL"}, {"measurement": "MIC", "setting": "[11]", "value": 1, "unit": "µg/mL"}, {"measurement": "MIC", "setting": "[12]", "value": 0.008, "unit": "µg/mL"}, {"measurement": "MIC", "setting": "[13]", "value": 1, "unit": "µg/mL"}, {"measurement": "MIC", "setting": "[14]", "value": 64, "unit": "µg/mL"}, {"measurement": "MIC", "setting": "[15]", "value": 32, "unit": "µg/mL"}, {"measurement": "MIC", "setting": "[16]", "value": 0.03, "unit": "µg/mL"}, {"measurement": "MIC", "setting": "[17]", "value": 0.03, "unit": "µg/mL"}]}
{"smiles": "CO[C@H]1/C=C/O[C@@]2(C)Oc3c(C)c(O)c4c(c3C2=O)C(=O)C=C(NC(=O)/C(C)=C\\C=C\\[C@H](C)[C@H](O)[C@@H](C)[C@@H](O)[C@@H](C)[C@H](OC(=O)CSC)[C@@H]1C)C4=O", "note": "[Compound C4, 36-Methylthiorifamycin S]", "values": [{"measurement": "MIC", "setting": "[1]", "value": 0.008, "unit": "µg/mL"}, {"measurement": "MIC", "setting": "[2]", "value": 0.06, "unit": "µg/mL"}, {"measurement": "MIC", "setting": "[3]", "value": 0.5, "unit": "µg/mL"}, {"measurement": "MIC", "setting": "[4]", "value": 0.5, "unit": "µg/mL"}, {"measurement": "MIC", "setting": "[5]", "value": 32, "unit": "µg/mL"}, {"measurement": "MIC", "setting": "[6]", "value": 64, "unit": "µg/mL"}, {"measurement": "MIC", "setting": "[7]", "value": 8, "unit": "µg/mL"}, {"measurement": "MIC", "setting": "[8]", "value": 32, "unit": "µg/mL"}, {"measurement": "MIC", "setting": "[9]", "value": 0.51, "unit": "µg/mL"}, {"measurement": "MIC", "setting": "[10]", "value": "> 128", "unit": "µg/mL"}, {"measurement": "MIC", "setting": "[11]", "value": 1, "unit": "µg/mL"}, {"measurement": "MIC", "setting": "[12]", "value": 0.001, "unit": "µg/mL"}, {"measurement": "MIC", "setting": "[13]", "value": 0.5, "unit": "µg/mL"}, {"measurement": "MIC", "setting": "[14]", "value": 128, "unit": "µg/mL"}, {"measurement": "MIC", "setting": "[15]", "value": 64, "unit": "µg/mL"}, {"measurement": "MIC", "setting": "[16]", "value": 0.002, "unit": "µg/mL"}, {"measurement": "MIC", "setting": "[17]", "value": 0.008, "unit": "µg/mL"}]}
